Results taken from patent US20040204577A1, “Novel peptide-forming enzyme gene” (Ajinomoto Co., Inc., priority 2003, published 2004).
Where a SMILES comes first, the peptide text is derived from it. [ ]: non-standard residue; d: D form. The star is where a group is joined. Tle = CC(C)(C)[C@H](N)C(=O)O; NMeA = CN[C@@H](C)C(=O)O; Boc = CC(C)(C)OC(=O)*; Aib = CC(C)(N)C(=O)O; OtBu = CC(C)(C)O*; tBu = CC(C)(C)*

Each molecule was assayed on peptide-forming enzyme (Mono S fraction enzyme) (assay: Enzyme substrate specificity (1)-(10), (13), (14): peptide production). Settings: L or D amino acid methyl ester hydrochloride 100 mM, L or D amino acid 150 mM, pH 9.0, 25° C., 3 hours.
Format: biochemical, Empedobacter brevis
Parameters: key to Formed peptide: +: those peptides for which production was confirmed but which were unable to be quantified due to the absence of a standard; a trace amount
Experimental: Ester specificity was examined in the case of using L-amino acid ester for the carboxy component. 2 μl of the same enzyme fraction as used in Example 5 was added to 100 μl of 100 mM borate buffer (pH 9.0) containing the carboxy components indicated in Table 4 at 100 mM, 200 mM L-glutamine and 10 mM EDTA, and allowed to react at 25° C. for 2 hours. HCl represents hydrochloride in Table 4.
Peptide production was examined in the case of using L-alanine methyl ester for the carboxy component and using various L-amino acids for the amine component.
Peptide production was examined in the case of using various types of L-amino acid methyl esters for the carboxy component and using L-glutamine for the amine component. 2 μl of the same enzyme fraction as used in Example 5 was added to 100 μl of 100 mM borate buffer (pH 9.0) containing the L-amino acid methyl ester hydrochloride salts (AA-OMe.HCl) shown in Table 6 at 100 mM, 150 mM L-glutamine and 10 mM EDTA, and allowed to react at 25° C. for 3 hours. […] Furthermore, Tween-80 was added to the reaction system to a final concentration of 0.1% in the case of using L-Trp-OMe and L-Tyr-OMe.
Peptide production was examined in the case of using various L-amino acid methyl esters for the carboxy component and various L-amino acids for the amine component. 2 μl of the same enzyme fraction as used in Example 5 was added to 100 μl of 100 mM borate buffer (pH 9.0) containing the L-amino acid methyl ester hydrochloride salts (AA-OMe.HCl) shown in Table 7 at 100 mM, the L-amino acids shown in Table 7 at 150 mM and 10 mM EDTA, and allowed to react at 25° C. for 3 hours. The “tr” indicates a trace amount. Furthermore, Tween-80 was added to the reaction system to a final concentration of 0.1% in the case of using L-Trp-OMe.
Peptide production was examined in the case of using the L or D forms of various amino acid methyl esters for the carboxy component, and the L or D forms of various amino acids for the amine component. 2 μl of the same enzyme fraction as used in Example 5 was added to 100 μl of 100 mM borate buffer (pH 9.0) containing the various amino acid methyl ester hydrochloride salts (AA-OMe HCl) shown in Table 8 at 100 mM, the various amino acids shown in Table 8 at 150 mM and 10 mM EDTA, and allowed to react at 25° C. for 3 hours. The “tr” indicates a trace amount.
Peptide production was examined using various L-amino acid amides for the carboxy component, and various L-amino acids for the amine component. 2 μl of the same enzyme fraction as that used in Example 5 was added to 100 μl of 100 mM borate buffer (pH 9.0) containing the L-amino acid amide hydrochloride salt (M-NH2.HCl) shown in Table 9 at 100 mM, the L-amino acids shown in Table 9 at 150 mM and 10 mM EDTA, and allowed to react at 25° C. for 3 hours.
Peptide production was examined in the case of using various L-alanine methyl esters for the carboxy component and C-protected L-amino acids for the amine component. 2 μl of the same enzyme fraction as used in Example 5 was added to 100 μl of 100 mM borate buffer (pH 9.0) containing the L-alanine methyl ester hydrochloride hydrochloride salt (Ala-OMe.HCl) shown in Table 10 at 100 mM, the L-amino acid amide hydrochloride salts shown in Table 10 at 150 mM and 10 mM EDTA, and allowed to react at 25° C. for 3 hours.
Peptide production was examined in the case of using various amino acid methyl esters for the carboxy component and methylamine for the amine component. 2 μl of the same enzyme fraction as used in Example 5 was added to 100 μl of 100 mM borate buffer (pH 9.0) containing the amino acid methyl ester hydrochloride salt (M-OMe.HCl) shown in Table 11 at 100 mM, the methylamine shown in Table 11 at 150 mM and 10 mM EDTA, and allowed to react at 25° C. for 3 hours.
Peptide production was examined in the case of using […] for the carboxy component or β-amino acid for the amine component.

Formed peptide	Compound
tr	C[C@@H](N)C(=O)N[C@H](CCC(N)=O)C(=O)O [D-Ala-D-Gln] (H-[dA]-[dQ]-OH)
69.3 mM	C[C@@H](N)C(=O)N[C@@H](CCC(N)=O)C(=O)O [D-Ala-L-Gln] (H-[dA]-Gln-OH)
2.7 mM	CSCC[C@@H](N)C(=O)N[C@H](CO)C(=O)O [D-Met-D-Ser] (H-[dM]-[dS]-OH)
5.1 mM	CSCC[C@@H](N)C(=O)N[C@@H](CO)C(=O)O [D-Met-L-Ser] (H-[dM]-Ser-OH)
2.5 mM	N[C@H](CO)C(=O)N[C@H](CO)C(=O)O [D-Ser-D-Ser] (H-[dS]-[dS]-OH)
3.3 mM	N[C@H](CO)C(=O)N[C@@H](CO)C(=O)O [D-Ser-L-Ser] (H-[dS]-Ser-OH)
1.1 mM	C[C@H](O)[C@@H](N)C(=O)N[C@H](CO)C(=O)O [D-Thr-D-Ser] (H-[dT]-[dS]-OH)
1.0 mM	C[C@H](O)[C@@H](N)C(=O)N[C@@H](CO)C(=O)O [D-Thr-L-Ser] (H-[dT]-Ser-OH)
0.5 mM	CC(C)[C@@H](N)C(=O)N[C@H](CO)C(=O)O [D-Val-D-Ser] (H-[dV]-[dS]-OH)
0.6 mM	CC(C)[C@@H](N)C(=O)N[C@@H](CO)C(=O)O [D-Val-L-Ser] (H-[dV]-Ser-OH)
0.3 mM	C[C@H](N)C(=O)N[C@H](CCC(N)=O)C(=O)O [L-Ala-D-Gln] (H-Ala-[dQ]-OH)
1.9 mM	CSCC[C@H](N)C(=O)N[C@H](CO)C(=O)O [L-Met-D-Ser] (H-Met-[dS]-OH)
16.2 mM	N[C@@H](CO)C(=O)N[C@H](CO)C(=O)O [L-Ser-D-Ser] (H-Ser-[dS]-OH)
6.9 mM	C[C@@H](O)[C@H](N)C(=O)N[C@H](CO)C(=O)O [L-Thr-D-Ser] (H-Thr-[dS]-OH)
1.4 mM	CC(C)[C@H](N)C(=O)N[C@H](CO)C(=O)O [L-Val-D-Ser] (H-Val-[dS]-OH)

Same assay, conditions: L-amino acid amide hydrochloride as carboxy component 100 mM, L-amino acid 150 mM, pH 9.0, 25° C., 3 hours

Formed peptide [mM]	Compound
0.6	N[C@@H](Cc1ccccc1)C(=O)N[C@@H](CO)C(=O)O [L-Phe-L-Ser] (H-Phe-Ser-OH)

Same assay, conditions: L-amino acid methyl ester hydrochloride 100 mM, 150 mM L-glutamine, pH 9.0, 25° C., 3 hours

Formed peptide	Compound
+	NC(=O)CC[C@H](NC(=O)[C@@H](N)CC(N)=O)C(=O)O [L-Asn-L-Gln] (H-Asn-Gln-OH)
+	NC(=O)CC[C@H](NC(=O)[C@@H](N)CS)C(=O)O [L-CySH-L-Gln] (H-Cys-Gln-OH)
+	NC(=O)CC[C@H](NC(=O)[C@@H](N)Cc1cnc[nH]1)C(=O)O [L-His-L-Gln] (H-His-Gln-OH)
+	CC(C)C[C@H](N)C(=O)N[C@@H](CCC(N)=O)C(=O)O [L-Leu-L-Gln] (H-Leu-Gln-OH)
+	NCCCC[C@H](N)C(=O)N[C@@H](CCC(N)=O)C(=O)O [L-Lys-L-Gln] (H-Lys-Gln-OH)
+	NC(=O)CCC(NC(=O)C(N)Cc1c[nH]c2ccccc12)C(=O)O [L-Trp-L-Gln] (H-Trp-Gln-OH; configuration not given here)

Same assay, conditions: L-amino acid methyl ester hydrochloride 100 mM, L-amino acid 150 mM, pH 9.0, 25° C., 3 hours

Formed peptide [mM]	Compound
45.6	NCC(=O)N[C@@H](CS)C(=O)O [Gly-L-CySH] (H-Gly-Cys-OH)
10.2	NC(=O)C[C@H](N)C(=O)N[C@@H](CCC(=O)O)C(=O)O [L-Asn-L-] (H-Asn-Glu-OH)
6.5	CSCC[C@H](NC(=O)[C@@H](N)Cc1cnc[nH]1)C(=O)O [L-His-L-Met] (H-His-Met-OH)
12.2	CSCC[C@H](NC(=O)[C@@H](N)CC(C)C)C(=O)O [L-Leu-L-] (H-Leu-Met-OH)
6.8	CSCC[C@H](NC(=O)[C@@H](N)CCCCN)C(=O)O [L-Lys-L-Met]
58.2	C[C@@H](O)[C@H](N)C(=O)N[C@@H](CO)C(=O)O [L-Thr-L-Ser] (H-Thr-Ser-OH)
4.1	CSCC[C@H](NC(=O)[C@@H](N)Cc1c[nH]c2ccccc12)C(=O)O [L-Trp-L-Met] (H-Trp-Met-OH)

Same assay, conditions: carboxy component 40 mM, amine component 40 mM, 0.1 unit enzyme, 25° C., reaction time 3 hr

Produced peptide [mM]	Compound
20.8	C[C@H](N)C(=O)N[C@@H](Cc1ccc(Cl)cc1)C(=O)O [H-Ala-Cl-F-Phe-OH]
27.5	C[C@H](N)C(=O)N[C@@H](Cc1ccc([N+](=O)[O-])cc1)C(=O)O [H-Ala-p-NO2-Phe-OH]
1.1	NC(=O)CC[C@H](NC(=O)[C@@H](N)Cc1ccc([N+](=O)[O-])cc1)C(=O)O [H-p-NO2-Phe-H-Gln-OH]

Same assay, conditions: carboxy component 50 mM, amine component 50 mM, 0.1 unit enzyme, 25° C., reaction time 3 hr

Produced peptide [mM]	Compound
21.9	C[C@H](N)C(=O)N[C@@H](Cc1ccc(F)cc1)C(=O)O [H-Ala-p-F-Phe-OH]

Same assay, conditions: carboxy component 100 mM, 200 mM L-glutamine, pH 9.0, 25° C., 2 hours

L-Ala-L-Gln formed [mM]	Compound
91.5	CCOC(=O)[C@H](C)N.Cl [L-Alanine ethyl ester.HCl]
78.9	CC(C)OC(=O)[C@H](C)N.Cl [L-Alanine isopropyl ester.HCl]
7.5	C[C@H](N)C(=O)OC(C)(C)C.Cl [L-Alanine-t-butyl ester.HCl]

Compound	L-Ala-L-Gln formed [mM]
COC(=O)[C@H](C)N.Cl [L-Alanine methyl ester.HCl, L-alanine methyl ester hydrochloride]	84.3

Same assay, conditions: carboxy component 100 mM, amine component 150 mM, 0.1 unit enzyme, 25° C., reaction time 2 hr

Produced peptide [mM]	Compound
62.6	C[C@H](N)C(=O)N[C@@H](CC(=O)OC(C)(C)C)C(=O)O [H-Ala-Asp(OtBu)-OH] (H-Ala-Asp(OtBu)-OH)
51.0	C[C@H](N)C(=O)N[C@@H](CCCCNC(=O)OC(C)(C)C)C(=O)O [H-Ala-Lys(Boc)-OH] (H-Ala-Lys(Boc)-OH)
48.8	C[C@H](N)C(=O)N[C@@H](COC(C)(C)C)C(=O)O [H-Ala-Ser(tBu)-OH] (H-Ala-Ser(tBu)-OH)
0.9	CC(C)(C)OC(=O)C[C@H](N)C(=O)N[C@@H](CCC(N)=O)C(=O)O [H-Asp(OtBu)-Gln-OH] (H-Asp(OtBu)-Gln-OH)

Same assay, conditions: carboxy component 100 mM, amine component 150 mM, 0.1 unit enzyme, 25° C., reaction time 3 hr

Produced peptide [mM]	Compound
18.8	CC(C)(N)C(=O)N[C@@H](CCC(N)=O)C(=O)O [H-Aib-H-Gln-OH] (H-[Aib]-Gln-OH)
17.2	CC(C)(N)C(=O)N[C@@H](Cc1ccccc1)C(=O)O [H-Aib-Phe-OH] (H-[Aib]-Phe-OH)
0.4	C[C@H](N)C(=O)N[C@H](C(=O)O)C(C)(C)C [H-Ala-t-Leu-OH] (H-Ala-[Tle]-OH)
0.5	CN[C@@H](C)C(=O)N[C@@H](CCC(N)=O)C(=O)O [H-N-Me-Ala-H-Gln-OH] (H-[NMeA]-Gln-OH)

Same assay, conditions: β-amino acid ester or β-amino acid; carboxy component 100 mM, amine component 150 mM, pH 9.0, 25° C., 3 hours

Formed peptide [mM]	Compound
7.7	CC(N)C(=O)NCCC(=O)O (stereo not drawn) [Ala-β-Ala]
1.4	CC(N)C(=O)NC(CC(=O)O)c1ccccc1 (stereo not drawn) [Ala-β-Phe]
2.2	NCC(=O)NCCC(=O)O [Gly-β-Ala]
0.4	NCC(=O)NC(CC(=O)O)c1ccccc1 (stereo not drawn) [Gly-β-Phe]
3.2	C[C@@H](O)[C@H](N)C(=O)NCCC(=O)O [Thr-β-Ala]
